What was measured:
[1] = test system: β-adrenergic receptors in porcine detrusors; assay: Contraction of potassium-contracted pig detrusor muscle strips in organ baths, relaxation by adrenaline and desensitization
Text: Bladders were obtained from freshly slaughtered pigs and placed in cold Krebs solution (composition, mM: sodium chloride 119, potassium chloride 4.6, sodium bicarbonate 15, calcium chloride 1.5, magnesium chloride 1.2, sodium dihydrogen phosphate 1.2, glucose was 1.98 g/L) which had been gassed by 5% CO2 and put on ice. Subsequently four adjacent strips were cut from the detrusor (typically 2 mm wide and 20 mm long). In each case, four strips were cut, one of which served as a control. The tissues were mounted in a 100-mL organ bath containing sodium Krebs solution, which was maintained at 37° C. and continuously gassed with 95% O2 and 5% CO2. The strips were placed under a tension of ≈1 g and allowed to equilibrate for 60 minutes, during which the bath was changed three times. The muscle contraction was recorded by a transducer. The muscle strips were then contracted by addition of potassium up to 50 mM and allowed to equilibrate.
About 40 minutes after addition of potassium, cnidimoside A was given to the organ baths. Cnidimoside A was isolated from Angelica archangelica leaf by boiling the dried leaf in water, extracting the water phase by ethyl acetate and subjecting the resulting organic phase to silica acid chromatography column. Cnidimoside A is eluted by 10% methanol in chloroform after washing the column with ethyl acetate and chloroform. The cnidimoside A rich fractions were recrystallized in methanol.
The muscle strip in the fourth organ bath (D in FIG. 1) received the same amount of DMSO but no cnidimoside A. About 20 and 30 minutes later (see FIG. 1, times 9 and 10) adrenaline was added to all organ baths, resulting in 0.4 (time 9) and 1.2 μM (time 10) final concentration, respectively.
About 75 minutes after addition of potassium, cnidimoside A dissolved in DMSO was added to three organ baths (E-G, time-10 in FIG. 2), the fourth receiving the same amount of DMSO (bottom graph (H) in FIG. 2). Fifteen minutes after the addition of cnidimoside A, adrenaline was added to all baths, to a final concentration of 2 μM (time 11 in FIG. 2). In the absence of cnidimoside A the muscle strip relaxed for about 15 minutes, but then started contracting again, reaching the same level of contraction about 50 minutes after the addition of adrenaline.

mice [2] = assay: Mouse toxicity experiment, Angelica archangelica water-extract mixed in food for 6 months; format: in vivo; conditions: daily consumption of cnidimoside A 3.35 mg/kg (calculated from extract content 0.15%)
Description: In a mouse experiment, we fed mice with about […] Angelica archangelica water-extract (mixed in food) daily for 6 months. Assuming the mice to be on average 23 g and cnidimoside A content in the extract to be 0.15%, this means that the daily consumption of cnidimoside A was 3.35 mg/kg.

Water solubility = format: physicochemical
mice [3] = conditions: 100 mg/kg daily, 30 days; cited from earlier work

## C/C(=C/Cc1c(O)cc2oc(C)cc(=O)c2c1O)CO[C@@H]1O[C@H](CO)[C@@H](O)[C@H](O)[C@H]1O [cnidimoside A, 5,7-dihydroxy-2-methyl-6-[(Z)-3-methyl-4-[(2R,3R,4S,5S,6R)-3,4,5-trihydroxy-6-(hydroxymethyl)oxan-2-yl]oxybut-2-enyl]chromen-4-one]
[1]; 13 μM cnidimoside A (bath C), adrenaline 0.4 and 1.2 μM, Experiment I
  Desensitization of the relaxation response to adrenaline: occurred slowly
[1]; 38 μM cnidimoside A (bath B), adrenaline 0.4 and 1.2 μM, Experiment I
  Desensitization of the relaxation response to adrenaline: not observed at all
[1]; 112 μM cnidimoside A (bath A), adrenaline 0.4 and 1.2 μM, Experiment I
  Desensitization of the relaxation response to adrenaline: not observed at all
[1]; 200 μM cnidimoside A, adrenaline 2 μM, Experiment II
  Desensitization of the relaxation response to adrenaline: occurs much slower
[1]; 13, 38 and 112 μM cnidimoside A vs DMSO control, Experiment I
  Repression of desensitization across doses: repressed dose-dependently
Mice [2]
  Toxic effect: No toxic effect
Water solubility
  Water solubility: highly water soluble
Mice [3]
  Effect on the weight of body, liver, spleen or thymus: without affecting

Source: patent US11850257B2, “Method for enhancing beta-adrenergic response” (Saganatura EHF., priority 2019, dated 2023)
